Columns and labels:
[1] = test system: intracellular Aβ1-42; assay: Intracellular Aβ1-42 in pyramidal neurons of APPswe/PS1ΔE9 transgenic mice; format: in vivo, mouse; details: PADK-treated APPswe/PS1ΔE9 transgenic mice; CA1
Text: (§1) FIG. 1. Lysosomal modulation increases the cathepsin B content of lysosomes and reduces intracellular Δβ1-42 in the APPswe/PS1ΔE9 transgenic mouse model of Alzheimer's disease. […] Without wishing to be bound by any scientific theory, the latter steps may involve processing/trafficking of active intermediate (intCB) and mature forms (matCB) from early/late endosomes to lysosomes in order to promote protein degradation (A). […] The increase in organellar cathepsin B enzyme (red) in PADK-treated APPswe/PS1ΔE9 transgenic mice (tg) was associated with a decrease in intracellular Δβ1-42 in the CA1 pyramidal neurons (C). Arrows denote co-localization in lysosomes, capturing intact Δβ1-42 before being degraded by cathepsin B. View-field widths: 12 μm. wt, vehicle-treated wild-type mice.
(§2) The lysosomal modulator Z-Phe-Ala-diazomethylketone (PADK) is administered to APPswe/PS1ΔE9 transgenic mice. Low-level PADK enhances cathepsin trafficking and maturation, thereby improving the clearance capacity of lysosomes (FIG. 1). It attenuates both PHF-tau and synaptic decline in the hippocampal slice model of protein accumulation (Bendiske and Bahr, 2003; Butler et al., 2005; Bahr, 2009). […] In PADK-treated transgenic mice, the increase in organellar cathepsin B was associated with a decrease in intracellular Aβ1-42 in pyramidal neurons (FIG. 1C).

[2] = molecular target: T1, active cathepsin B (Homo sapiens, UniProt P07858); assay: Active cathepsin B staining in human neuronal cultures; format: cell-based; details: 10 μM for 3 days, vs control compound Z-FA
T1 construct: endogenous in cells

[3] = test system: human A53T α-synuclein transgenic mice; assay: Open field test in A53T α-synuclein transgenic mice; format: in vivo, mouse; details: A53T mice 7-8 months; 18 mg/kg/day for 11 days
Experimental: FIG. 5. The cathepsin B modulator PADK also has a behavioral effect during early α-synucleinopathy. Vehicle-treated and PADK in the model of early α-synucleinopathy, human A53T α-synuclein transgenic mice, 7-8 months old, were injected with vehicle or PADK (18 mg/kg/day) for 11 days and their locomotor activity was measured in the open field test (OFT) for two days, center and perimeter crossings were measured. No difference in center crossings was found on day 1 as compared to wild-type mice (left graph), thus an indication of pre-symptomatic early stage Parkinson's disease (PD) before typical locomotor deficits. However, center crossings are often used as a measure of altered anxiety in PD mice. […] The altered anxiety in the vehicle-treated A53T mice appears to be a selective effect since perimeter crossings on day 2 were unchanged (right graph).

[4] = test system: rats; assay: Adverse effect observation after oral dosing in rats; format: in vivo, rat; details: 15 mg/kg twice a day, 10 days
[5] = test system: Aβ1-42 peptide; details: cited from earlier work
[6] = molecular target: T2, cathepsin B (Mus musculus, UniProt P10605); assay: Cathepsin B / LAMP1 immunostaining of hippocampal tissue from PADK-treated mice; format: in vivo; parameters: from tissue; host or cells: mouse hippocampus (A1); details: i.p., 20 mg/kg/day×9 days
T2 sequence (P10605 80-333): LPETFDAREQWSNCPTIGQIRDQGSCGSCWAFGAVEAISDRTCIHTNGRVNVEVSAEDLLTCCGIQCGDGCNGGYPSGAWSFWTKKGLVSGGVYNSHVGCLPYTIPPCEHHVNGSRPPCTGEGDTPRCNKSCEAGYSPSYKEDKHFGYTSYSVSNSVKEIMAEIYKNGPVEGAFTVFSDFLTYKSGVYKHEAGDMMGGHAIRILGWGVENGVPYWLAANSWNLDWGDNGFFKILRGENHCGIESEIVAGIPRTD
Text: as §1, §2

[7] = molecular target: T2, cathepsin B; assay: Cathepsin B species immunoblot in heart tissue of A53T mice; format: in vivo; parameters: heart tissue was obtained to test for changes in cathepsin B; from tissue; host or cells: mouse heart, wild-type and A53T transgenic (A16); details: A53T mice; i.p., 18 mg/kg/day
Experimental: FIG. 8. PADK also enhances cathepsin B species in the heart. The A53T early α-synucleinopathy mouse model was injected daily with vehicle or PADK (i.p., 18 mg/kg/day) to test for changes in heart tissue. […] Positions of molecular weight standards (kDa) are shown on the left side of the immunoblot. (B) In the lower graph, ratios between CB-30 and CB-105 (mean±SEM) provide a good example of the unique PADK effect on cathepsin B species in the heart. **P<0.01 as compared to vehicle-treated A53T mice.
Ratio measures between the 30-kDa form and the 105-kDa species indicate a unique PADK effect on cathepsin B species in the heart (FIG. 8 bar graph).

C[C@H](NC(=O)[C@H](Cc1ccccc1)NC(=O)OCc1ccccc1)C(=O)C=[N+]=[N-] [PADK, N-carbobenzyloxy-L-phenylalanyl-L-alanyl-diazomethylketone]
intracellular Aβ1-42 in pyramidal neurons [1]: decrease
levels of active cathepsin B [2]: increased levels of active cathepsin B
center crossings on day 2 (altered anxiety) [3]: did not consistently exhibit such a positive trend
adverse effects during behavioral tests [4]: no evidence of adverse effects
extracellular Aβ deposits ([5]; AD mouse models): significantly reduced
truncated Aβ38 ([5]; AD transgenic mice): increase
synaptic integrity and cognitive ability ([5]; AD transgenic mouse models): improved
intracellular Aβ1-42 peptide in the hippocampus and other brain regions ([5]; two different transgenic mouse models of AD): reduced
active form of cathepsin B ([5]; two mouse models of AD): markedly up-regulated
levels of cathepsin B in hippocampal neurons, co-localized with LAMP1-positive lysosomes [6]: enhanced levels of cathepsin B
active form of cathepsin B (CB-30) in heart [7]: robust PADK-mediated increase

— patent US20160136229A1, “MATERIALS FOR POSITIVE CATHEPSIN B MODULATION AND METHODS OF USE FOR TREATING MILD COGNITIVE IMPAIRMENT (MCI), EARLY DEMENTIA, A-SYNUCLEINOPATHY, TRAUMATIC BRAIN INJURY, CARDIOMYOPATHY, EYE DISEASE AND SKIN DAMAGE” (University of North Carolina at Pembroke, priority 2013, published 2016)
